Assay results published in US8119689B2, “Adjuvants on the basis of bisacyloxypropylcystene conjugates and derivatives and their uses in pharmaceutical compositions” (Helmholtz-Zentrum Fuer Infektionsforschung GmbH, priority 2005, dated 2012).
Entries after “also recorded” stand apart in the source; their conditions may differ.

Legend:
[1] = system: β-gal-specific antibodies; assay: Serum β-gal-specific IgG titers after i.n. or s.c. vaccination (ELISA); assay type: in vivo, BALB/c mice
Experimental: FIG. 5: FIG. 5 illustrates the humoral responses following vaccination using BPPcysGlyc4armPEG and BPPcysAda, respectively, as adjuvant. Mice were immunised by intranasal (i.n.) and subcutaneous, transcutaneous (topical vaccination) (s.c.) routes with either β-galactosidase (30 μg) alone or β-galactosidase mixed with BPPcysGlyc4armPEG or BPPcysAda on days 0, 14 and 28. At day 38 post primary immunisation, serum samples were collected and the titre of 1-galactosidase-specific antibodies was determined by ELISA. As a control, a group in which animals were immunized with β-galactosidase alone was used (A). In (B) and (C) the kinetic of antigen specific serum IgG is shown for intranasal vaccination (B) and parenteral vaccination (C), respectively. […] Differences were statistically significant at p<0.05 (*) with respect to mice receiving antigen alone. One representative out of four independent experiments is shown. SEM is indicated by vertical lines.
Experimental protocol: six-eight weeks-old female BALB/c (H-2d) mice were purchased from Harlan Winkelmann GmbH (Borchen, Germany) and treated in accordance with local and European Community guidelines. […] Endpoint titers were expressed as the reciprocal log2 of the last dilution, which gave an optical density at 405 nm of 0.1 units above the values of the negative controls after 15 to 30 min of incubation.

[2] = system: β-gal antigen-specific IgG isotypes; assay: β-gal-specific IgG isotypes in sera of immunized mice (isotype ELISA); assay type: in vivo
Experimental: FIG. 8: FIG. 8 provides the analysis of beta-Gal specific IgG isotypes in sera of immunized mice. Anti-beta-Gal specific IgG isotypes of the groups immunized with PBS, (control) beta-Gal+either BPPcysGlyc4armPEG or BPPcysPEG (FIG. 8A) or BPPcysAda or Ada alone (FIG. 8B), or beta-Gal alone of mice immunized by the i.n. or s.c. route were determined by ELISA. Results are expressed as end point titers. IgG titers represent the mean of five animals per experimental group. Differences were statistically significant at p<0.05 (*) with respect to mice receiving antigen alone. One representative out of four independent experiments is shown. SEM is indicated by vertical lines.
Isotyp ELISA: 96-well Nunc-Immuno MaxiSorp assay plates (Nunc, Roskilde, Denmark) were coated with 100 μl of β-gal (Boehringer, Mannheim, Germany) at 5 μg/ml in 0.05 M carbonate buffer (pH 8.2) per well. Serial two-fold dilutions of sera or lavages in PBS with 1% BSA and 0.05% Tween 20 were added (100 μl/well), and plates incubated for 2 h at 37° C. After washing, biotin-conjugated rat anti-mouse IgG1 or IgG2a (Pharmingen, Hamburg, Germany) were added to determine IgG subclasses. Plates were incubated for an additional 1 h at 37° C. After four washes, 100 μl of peroxidase-conjugated streptavidin (Pharmingen) was added to cells and plates incubated at 37° C. for 30 min. After four washes, reactions were developed with ABTS in 0.1 M citrate-phosphate buffer (pH 4.35) containing 0.01% H2O2. To determine the concentration of IgG subclasses in serum, standard curves were obtained by coating the wells with an isotype-specific goat anti-mouse IgG, and then by incubating with purified mouse IgG1 or IgG2a antibodies (Dianova, Hamburg, Germany).

[3] = system: spleen cells; assay: Cytokines secreted by in vitro re-stimulated spleen cells of immunized mice (cytometric bead array); assay type: in vivo
Experimental: Cytokines secreted by in vitro re-stimulated spleen cells were determined in immunized mice by CBA. Results are expressed as cytokine concentration ratios (IL-10 the most prominent detected cytokine) (B) and (D) and the stimulation index (A) and (C).
Cytometric Bead Array: Culture supernatants from proliferating cells were collected on days 2 and 4, and stored at −70° C. Determinations of IFN-γ, TNFα, IL-2, IL-4, IL-5, IL-6, IL-10 and IL-12 were performed by cytometric bead array analysis using the commercial kit from BD, according to the manufacturer's instructions. A standard curve was generated for each cytokine by using the corresponding recombinant murine cytokines (Pharmingen). Probes were incubated at room temperature for additional 2 h. The probes were then analyzed by flow cytometry as described by the protocol of BD.
To characterize the type of Th response stimulated following immunization, the content of IFN-γ, IL-2, IL-4, IL-5, IL-6, IL-10, IL-12 and TNFα was measured in supernatants from in vitro re-stimulated spleen cells (FIG. 7). […] In fact, the strong stimulation of IL-10 secretion is congruent with the role played by this cytokine in the inhibition of cytokine synthesis by Th1 cells, the enhancement of B cells proliferation and the stimulation of IgA production.

[4] = system: CD8+ T cells; assay: IFNγ-producing CD8+ T cells after stimulating splenocytes with MHC cl. I restricted β-Gal or OVA peptides; assay type: in vivo; settings: vs β-Gal or OVA alone-treated groups; intranasal, subcutaneous or intramuscular route (not shown)
Experimental: To assess the epitope-specific cellular immune response induced by the co-administration of BPPCysAda via intranasal, subcutaneous or intramuscular route, IFNγ-producing CD8+ T cells were analyzed after stimulating splenocytes with the MHC cl. I restricted β-Gal (TPHPARIGL) or OVA ([…]) peptides.

[5] = supernatants of in vitro re-stimulated spleen cells

CCCCCCCCCCCCCCCC(=O)OCC(CSC[C@H](N)C(=O)N[C@H]1[C@@H](O)[C@H](n2cnc3c(N)ncnc32)O[C@@H]1CO)OC(=O)CCCCCCCCCCCCCCC (single isomer, unassigned) [BPPcysAda, S-[2,3-bis(palmitoyloxy)-(2S or 2R)-propyl]-L-cysteinylcarboxy-3′Amino-3′-deoxyadenosine]
β-gal-specific serum IgG titers, i.n. administration ([1]; i.n. with β-gal, vs antigen alone): enhanced expression; also recorded: very high titers; also recorded: significantly higher levels
β-gal-specific serum IgG titers, s.c. route ([1]; s.c. co-injection with β-gal, vs β-gal alone): enhanced expression; also recorded: increased
antigen specific antibodies of the IgG1 subtype, intranasal ([2]; intranasal administration): significantly enhances; also recorded: strongly increased
antigen specific antibodies of the IgG2a isotype, intranasal ([2]; intranasal administration): significantly enhances; also recorded: strongly increased
expression of the IgG1 isotype, subcutaneous ([2]; subcutaneous administration): strongly increased
expression of the IgG2a isotype, subcutaneous ([2]; subcutaneous administration): strongly increased
IL-4 levels ([3]; all BPPcysAda co-administered groups, intranasal): induced
type of immune response induced ([3]; mucosal and parenteral co-administration): Th2 dominated immune response
IFNγ secretion [3, 5]: weaker increase; also recorded: minor secretion
IL-2 secretion [3, 5]: induced; also recorded: weaker increase; also recorded: minor secretion
IL-6 secretion [3, 5]: weaker increase
IL-10 levels [3, 5]: significantly increased
TNFα secretion [3, 5]: weaker increase
number of IFNγ-secreting CD8+ T cells [4]: significantly decreased
